Data: patent US7368432B2 (Xenome, Ltd., priority 1999, dated 2008)

What was measured:
neurotensin receptors = conditions: in vivo; cited from earlier work
CF-1 mice = conditions: mouse, in vivo

Substance | potency in inhibiting pain relative to neurotensin (neurotensin receptors) | motor impairment (rotarod) (CF-1 mice)
Contulakin-G | significantly more potent than neurotensin | –
NGVCCGYKLCHOC [Mar1] | – | do not produce gross motor impairment or impair performance on the rotarod test
